According to patent US7713996B2, “Indolyl derivatives which are L-CPT1 inhibitors” (Hoffmann-La Roche Inc., priority 2005, dated 2010):
pIC50: −log10 of the molar value.

The molecules below were run against T1, L-CPT1 (Homo sapiens, UniProt P50416) (assay: L-CPT1 inhibition, spectrophotometric CPT activity assay with DTNB (Ellman's reagent)). Details: human liver CPT1 expressed in P. pastoris, cell extracts; carnitine 500 μM, palmitoyl-CoA 80 μM, DTNB 300 μM, pH 7.4.
T1 construct: made in house; host or cells: Pichia pastoris strain X-33
T1 sequence (P50416 1-773): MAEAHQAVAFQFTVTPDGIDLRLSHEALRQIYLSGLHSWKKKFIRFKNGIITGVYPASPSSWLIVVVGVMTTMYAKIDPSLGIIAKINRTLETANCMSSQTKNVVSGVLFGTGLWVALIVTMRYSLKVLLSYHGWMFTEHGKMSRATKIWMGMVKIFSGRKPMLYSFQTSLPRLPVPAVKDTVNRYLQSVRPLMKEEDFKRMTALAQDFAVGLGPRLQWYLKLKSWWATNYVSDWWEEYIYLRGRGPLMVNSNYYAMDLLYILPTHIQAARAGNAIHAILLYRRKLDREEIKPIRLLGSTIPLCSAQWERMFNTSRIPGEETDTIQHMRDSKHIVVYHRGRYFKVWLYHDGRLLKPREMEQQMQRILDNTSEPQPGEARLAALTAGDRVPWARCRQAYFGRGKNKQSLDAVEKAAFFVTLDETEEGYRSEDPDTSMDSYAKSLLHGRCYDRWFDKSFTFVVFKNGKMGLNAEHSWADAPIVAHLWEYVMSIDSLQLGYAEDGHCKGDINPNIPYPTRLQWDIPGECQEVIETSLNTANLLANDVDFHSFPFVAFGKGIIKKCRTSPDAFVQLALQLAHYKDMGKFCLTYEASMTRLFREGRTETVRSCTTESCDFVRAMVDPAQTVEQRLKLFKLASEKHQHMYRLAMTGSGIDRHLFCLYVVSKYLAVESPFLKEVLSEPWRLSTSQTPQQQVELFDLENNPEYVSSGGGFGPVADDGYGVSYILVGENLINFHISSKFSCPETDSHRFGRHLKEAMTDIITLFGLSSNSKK
Type: biochemical
Protocol: The following tests were carried out in order to determine the activity of the compounds of the present invention. Background information on the performed assays can be found in: Jackson et al., 1999, Biochem. J. 341, 483-489 and Jackson et al., 2000, J. Biol. Chem. 275, 19560-19566.
Human liver and muscle CPT1 cDNAs and rat CPT2 cDNA were subcloned in pGAPZB or pGAPZA, respectively. These plasmids were used to transform P. pastoris strain X-33 via electroporation after the preparation of electrocompetent cells. High copy number clones were selected where necessary using 0.5 or 1 mg/ml Zeocin. Cultures for activity measurements were induced for 16 h in YPD medium (1% yeast extract, 2% peptone, 2% glucose). Crude cell extracts were prepared by disrupting the cells with glass beads or French Press, depending on fermenter sizes. After centrifugation, the cell-free extracts were resuspended in cell breaking buffer (50 mM Tris, pH7.4, 100 mM KCl, 1 mM EDTA) in the presence of a protease inhibitor cocktail, before aliquoting and freezing at −20° C.
CPT activity was measured using a spectrophotometric assay using 5,5′-dithio-bis-(2-nitrobenzoic acid) (DTNB) also called Ellman's reagent. The HS-CoA released on the formation of acylcarnitine from carnitine (500 μM) and palmitoyl-CoA (80 μM) reduced DTNB (300 μM) forming 5-mercapto-(2-nitrobenzoic acid) which absorbed at 410 nm with a molar coefficient extinction of 13600 M^−1·cm^−1. The assay buffer contained 120 mM KCl, 25 mM Tris, pH 7.4, 1 mM EDTA. This assay was used for the identification of selective inhibitors of the liver CPT1 isoform versus the muscle CPT1 and CPT2 isoforms.

| pIC50 | Compound |
| --- | --- |
| 6.80 | O=C(Nc1ccc(C(=O)O)c(Cl)c1)c1ccc2c(c1)N(S(=O)(=O)c1cccc(Cl)c1)CC2 [Example 1, 2-Chloro-4-{[1-(3-chloro-benzenesulfonyl)-2,3-dihydro-1H-indole-6-carbonyl]-amino}-benzoic acid] |
| 7.14 | COc1ccc(Cl)cc1S(=O)(=O)N1CCc2ccc(C(=O)Nc3ccc(C(=O)O)c(F)c3)cc21 [Example 12, 4-{[1-(5-Chloro-2-methoxy-benzenesulfonyl)-2,3-dihydro-1H-indole-6-carbonyl]-amino}-2-fluoro-benzoic acid] |
| 7.69 | COc1ccc(Cl)cc1S(=O)(=O)N1CCc2ccc(C(=O)Nc3ccc(C(=O)O)cc3)cc21 [Example 31, 4-{[1-(5-Chloro-2-methoxy-benzenesulfonyl)-2,3-dihydro-1H-indole-6-carbonyl]-amino}-benzoic acid] |
